Literature values, collected in publication PMC11845477, “Exploring the principles behind antibiotics with limited resistance” (Nature Communications, 2025).
Like-named read-outs stand apart in the source and are kept apart here. Where a SMILES comes first, the peptide text is derived from it. Bridges are numbered along the chain shown (N, C = ends). [ ]: non-standard residue; d: D form. The star is where a group is joined. X2 = CC[C@H](C)CCCCC(=O)*; Dab = NCC[C@H](N)C(=O)O

How the values were obtained:
[1] = test system: A. baumannii ATCC 17978 (SEN) and A. baumannii ATCC BAA-1605 (MDR); set-up: method as in PMID 39805953; settings: cited from earlier work
[2] = test system: Escherichia coli, Klebsiella pneumoniae, Acinetobacter baumannii, and Pseudomonas aeruginosa; settings: all species; cited from earlier work

| SMILES | resistance level (relative MIC) after FoR assay ([1]; A. baumannii multidrug-resistant (MDR) strain) | resistance level (relative MIC) after FoR assay ([1]; A. baumannii sensitive strain) | average increment in resistance level (relative MIC) after FoR assay [2] |
| --- | --- | --- | --- |
| CC[C@H](C)CCCCC(=O)N[C@@H](CCN)C(=O)N[C@H](C(=O)N[C@@H](CCN)C(=O)N[C@H]1CCNC(=O)[C@H]([C@@H](C)O)NC(=O)[C@H](CCN)NC(=O)[C@H](CCN)NC(=O)[C@H](CC(C)C)NC(=O)[C@@H](Cc2ccccc2)NC(=O)[C@H](CCN)NC1=O)[C@@H](C)O [Polymyxin B] (X2-[Dab]T[Dab][Dab][Dab][dF]L[Dab][Dab]T; lactam 4-C (inferred); N-terminus assumed) | more than 128 fold | no resistant mutants emerged |  |
| CC(C)c1ccc(Cn2ccc3c4c(N)nc(NC5CC5)nc4ccc32)cc1 [SCH79797] |  |  | less than fourfold |
